Source: patent US20150208645A1, “PHYTOSANITARY COMPOSITIONS COMPRISING AN ETHER-AMIDE COMPOUND” (priority 2012, published 2015)

Assays:
Assay type in all cases: physicochemical
[1] = Visual observation at 25° C. of EC formulation (aspect, presence of crystals); conditions: 10% Alkamuls RC, remainder the solvent
Experimental: (§1) By mixing the ingredients, formulations of various phytosanitary active ingredients of the type emulsifiable concentrate type (EC) are prepared. […] The following tests are conducted: Visual observation at 25° C.—The aspect of the formulation is noted and the presence of crystals is optionally located

[2] = Visual observation at 0° C. after 7 days (test CIPAC MT39); conditions: 10% Alkamuls RC, remainder the solvent, 7 days at 0° C.
Experimental: as §1, with “0°” for “25°”, “C.—The formulation is placed for 7 days at 0° C. and the” for “C.—The”, “located (test CIPAC MT39)” for “located”

[3] = Visual observation at 0° C. with nucleation (crystal of active material introduced, again 7 days at 0° C.); conditions: 10% Alkamuls RC, remainder the solvent, seeded with crystal, further 7 days at 0° C.
Experimental: By mixing the ingredients, formulations of various phytosanitary active ingredients of the type emulsifiable concentrate type (EC) are prepared. The formulations comprise: […]
10% by weight of the surfactant Alkamuls® RC, marketed by Rhodia
and, as a solvent, the remainder of the compound of the examples.
The following tests are conducted:
Visual observation at 0° C. with nucleation: A crystal of active material is introduced into the formulation having spent 7 days at 0° C. formulation, and the formulation is again placed for 7 days at 0° C. The aspect of the formulation is noted and the presence of crystals is optionally located.

[4] = EC formulation: Azoxystrobin 25% by weight
[5] = EC formulation: Difenconazole 25% by weight
[6] = EC formulation: Dimethoate 40% by weight
[7] = EC formulation: Oxyfluorfen 22% by weight
[8] = EC formulation: Phenmedipham 16% by weight
[9] = EC formulation: Propanil 36% by weight
[10] = EC formulation: Propoxur 20% by weight
[11] = EC formulation: Tebuconazole 25% by weight
[12] = EC formulation: Trifluralin 40% by weight

## CCOCCCC(=O)N(C)C [Compound 4]
[1]; [4]
  Aspect at 25° C.: Crystals
[1]; [5]
  Aspect at 25° C.: Limpid
[1]; [6]
  Aspect at 25° C.: Limpid
[1]; [7]
  Aspect at 25° C.: Cloudy
[1]; [8]
  Aspect at 25° C.: Limpid
[1]; [9]
  Aspect at 25° C.: Limpid
[1]; [10]
  Aspect at 25° C.: Limpid
[1]; [11]
  Aspect at 25° C.: Limpid
[1]; [12]
  Aspect at 25° C.: Limpid
[2]; [4]
  Aspect at 0° C.: Crystals
[2]; [5]
  Aspect at 0° C.: Limpid
[2]; [6]
  Aspect at 0° C.: Limpid
[2]; [7]
  Aspect at 0° C.: Cloudy
[2]; [8]
  Aspect at 0° C.: Limpid
[2]; [9]
  Aspect at 0° C.: Limpid
[2]; [10]
  Aspect at 0° C.: Limpid
[2]; [11]
  Aspect at 0° C.: Limpid
[2]; [12]
  Aspect at 0° C.: Limpid
[3]; [4]
  Aspect at 0° C. with nucleation: Crystals
[3]; [5]
  Aspect at 0° C. with nucleation: Limpid
[3]; [6]
  Aspect at 0° C. with nucleation: Limpid
[3]; [7]
  Aspect at 0° C. with nucleation: Cloudy
[3]; [8]
  Aspect at 0° C. with nucleation: Limpid
[3]; [9]
  Aspect at 0° C. with nucleation: Limpid
[3]; [10]
  Aspect at 0° C. with nucleation: Limpid
[3]; [11]
  Aspect at 0° C. with nucleation: Limpid
[3]; [12]
  Aspect at 0° C. with nucleation: Crystals
